Source: patent US11046697B2, “Compounds and compositions useful for treating disorders related to NTRK” (BLUEPRINT MEDICINES CORPORATION, priority 2015, dated 2021)
Where two headings read alike, the source gives them in different places.

What was measured:
[1] = target: T1, wild type NTRK1 enzyme (Homo sapiens, UniProt P04629); test: NTRK1 Wild Type Assay at 1 mM ATP; format: biochemical; conditions: 1 mM ATP; read-out: Enz NTRK1 IC50
T1 construct: purchased BPS Bioscience 40280
Method: NTRK1 Wild Type Assay at 1 mM ATP
The reaction was stopped by the addition of 70 μL of Stop buffer (100 mM HEPES pH 7.5, 0.015% Brij 35, 35 mM EDTA and 0.2% of Coating Reagent 3 (Caliper Lifesciences)). The plate was then read on a Caliper EZReader 2 (protocol settings: −1.7 psi, upstream voltage −500, downstream voltage −3000, post sample sip 35s).

[2] = test system: KM12 wild type colon carcinoma cell line harboring the TPM3-NTRK1 fusion protein; test: NTRK wild type cellular assay (CellTiter-Glo growth inhibition); format: cell-based; conditions: for IC50: 72 hr, CellTiter-Glo, read-out: KM12 (WT) IC50
Method: (§1) NTRK Wild Type and G595R Mutant Cellular Assays Protocol
(§2) KM12 wild type colon carcinoma cell line harboring the TPM3-NTRK1 fusion protein was obtained from the National Cancer Institute (NCI). This line has been previously shown to be dependent upon the NTRK activity derived from the NTRK fusion protein for growth and survival. […] Cells were first plated in 384-well plates at 1000 cells/well in complete media (10% FBS and 1% pen/strep) and incubated overnight at 37° C. Cells were then dosed with test articles at varying concentrations using the Bravo liquid handling system. […] Each compound was run in duplicate per plate. […] 72 hr after dosing, assay plates were developed using CellTiter-Glo (Promega) and resultant luminescence was read on the Envision plate reader. IC50 determinations were calculated using a 4-parameter curve fitting algorithm

[3] = test system: KM12 Cliff (G595R) cell line; test: NTRK G595R mutant cellular assay (CellTiter-Glo growth inhibition); format: cell-based; conditions: for IC50: 72 hr, CellTiter-Glo
Method: as §1, §2

T1 sequence (P04629 440-796 limits assumed): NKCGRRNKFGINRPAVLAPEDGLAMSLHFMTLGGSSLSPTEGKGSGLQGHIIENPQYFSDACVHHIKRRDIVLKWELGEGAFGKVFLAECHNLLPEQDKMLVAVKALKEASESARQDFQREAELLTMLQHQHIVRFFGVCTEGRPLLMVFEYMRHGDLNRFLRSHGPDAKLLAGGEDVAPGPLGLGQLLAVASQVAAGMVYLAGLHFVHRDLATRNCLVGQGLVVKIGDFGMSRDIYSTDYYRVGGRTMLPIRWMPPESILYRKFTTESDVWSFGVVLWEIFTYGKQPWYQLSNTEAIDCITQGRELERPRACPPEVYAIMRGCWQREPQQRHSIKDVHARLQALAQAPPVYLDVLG

SMILES	IC50 [1]	IC50 [2]	IC50 [3]	IC50 ([2]; Homo sapiens, KM12, 72 h)	IC50 ([3]; Homo sapiens, KM12, 72 h)	GI50 ([2]; Homo sapiens, KM12, wild-type NTRK fusion cells, read-out: NTRK wt Cellular GI50)	GI50 ([3]; Homo sapiens, KM12, G595R mutant NTRK fusion cells)
O=C(NC(CO)c1cc(F)ccc1F)c1n[nH]c2ncnc(NC3CCCC3O)c12 (stereo not shown) [Compound 27]	< 0.01 µM	0.01 to 0.1 µM	0.01 to 0.1 µM	–	–	–	–
CN(Cc1cc(F)ccc1F)C(=O)c1n[nH]c2ncnc(NC3CCC(O)C3O)c12 (stereo not shown) [Compound 28]	< 0.01 µM	0.01 to 0.1 µM	0.01 to 0.1 µM	–	–	–	–
CN(Cc1cc(F)ccc1F)C(=O)c1n[nH]c2ncnc(N[C@@H]3COCC[C@H]3O)c12 [Compound 29]	< 0.01 µM	–	–	0.01 to 0.1 µM	0.01 to 0.1 µM	–	–
C[C@@H](NC(=O)c1n[nH]c2ncnc(N[C@@H]3COCC[C@H]3O)c12)c1cc(F)ccc1F [Compound 30]	0.1 to 1 µM	–	–	0.01 to 0.1 µM	0.1 to 1 µM	–	–
CC(NC(=O)c1n[nH]c2ncnc(NC3CCOCC3O)c12)c1cc(F)ccc1F (stereo not shown) [Compound 31]	0.1 to 1 µM	0.1 to 1 µM	0.1 to 1 µM	–	–	–	–
O=C(NCc1cc(F)ccc1F)c1n[nH]c2ncnc(N[C@@H]3CCC[C@@H](O)[C@H]3O)c12 [Compound 32]	0.01 to 0.1 µM	–	–	0.1 to 1 µM	0.1 to 1 µM	–	–
CN(Cc1cc(F)cc(F)c1)C(=O)c1n[nH]c2ncnc(NC3CCC(O)C3O)c12 (stereo not shown) [Compound 33]	0.01 to 0.1 µM	0.01 to 0.1 µM	0.01 to 0.1 µM	–	–	–	–
CC(NC(=O)c1n[nH]c2ncnc(NC3CCC(O)C3O)c12)c1cc(F)ccc1F (stereo not shown) [Compound 34]	0.01 to 0.1 µM	0.01 to 0.1 µM	0.1 to 1 µM	–	–	–	–
CC(NC(=O)c1n[nH]c2ncnc(NC3CCC(O)C3O)c12)c1cc(F)ccc1F (stereo not shown) [Compound 35]	0.1 to 1 µM	0.1 to 1 µM	> 1 µM	–	–	–	–
O=C(NCc1cc(F)ccc1Cl)c1n[nH]c2ncnc(N[C@@H]3CC[C@@H](O)[C@H]3O)c12 [Compound 36]	0.01 to 0.1 µM	–	–	0.1 to 1 µM	0.1 to 1 µM	–	–
O=C(NCc1cc(F)ccc1Cl)c1n[nH]c2ncnc(N[C@@H]3COCC[C@H]3O)c12 [Compound 37]	0.01 to 0.1 µM	0.1 to 1 µM	0.1 to 1 µM	–	–	–	–
O=C(NCc1cc(F)cc(Cl)c1)c1n[nH]c2ncnc(NC3CCC(O)C3O)c12 (stereo not shown) [Compound 38]	0.1 to 1 µM	0.1 to 1 µM	0.1 to 1 µM	–	–	–	–
[2H]C([2H])([2H])N(Cc1cc(F)ccc1F)C(=O)c1n[nH]c2ncnc(N[C@@H]3COCC[C@H]3O)c12 [Compound 39]	< 0.01 µM	–	–	0.01 to 0.1 µM	0.01 to 0.1 µM	–	–
O=C(NCc1cc(F)cc(F)c1F)c1n[nH]c2ncnc(N[C@@H]3COCC[C@H]3O)c12 [Compound 40]	0.01 to 0.1 µM	0.1 to 1 µM	0.1 to 1 µM	–	–	–	–
O=C(NCc1cc(F)cc(F)c1F)c1n[nH]c2ncnc(N[C@@H]3CC[C@@H](O)[C@H]3O)c12 [Compound 41]	0.01 to 0.1 µM	–	–	0.1 to 1 µM	0.1 to 1 µM	–	–
O=C(NCc1cc(F)ccc1F)c1n[nH]c2ncnc(NC3CC(F)(F)CC3O)c12 (stereo not shown) [Compound 42]	0.1 to 1 µM	> 1 µM	> 1 µM	–	–	–	–
O=C(NCc1cc(F)ccc1F)c1n[nH]c2ncnc(NC3CC(F)(F)CC3O)c12 (stereo not shown) [Compound 43]	0.01 to 0.1 µM	0.01 to 0.1 µM	0.1 to 1 µM	–	–	–	–
CN(Cc1cc(F)cc(C#N)c1)C(=O)c1n[nH]c2ncnc(NC3CCC(O)C3O)c12 (stereo not shown) [Compound 44]	0.01 to 0.1 µM	0.01 to 0.1 µM	0.1 to 1 µM	–	–	–	–
O=C(c1n[nH]c2ncnc(N[C@@H]3CCC[C@H]3O)c12)N1CCC[C@@H]1c1cc(F)ccc1F [Compound 45, ((R)-2-(2,5-difluorophenyl)pyrrolidin-1-yl)(4-(((1R,2R)-2-hydroxycyclopentyl)amino)-1H-pyrazolo[3,4-d]pyrimidin-3-yl)methanone]	< 0.01 µM	–	–	< 0.01 µM	< 0.01 µM	–	–
O=C(c1n[nH]c2ncnc(NC3CCCC3O)c12)N1CC(F)CC1c1cncc(F)c1 (stereo not shown) [Compound 46]	< 0.01 µM	< 0.01 µM	< 0.01 µM	–	–	–	–
O=C(NC1(c2cc(F)ccc2F)CC1)c1n[nH]c2ncnc(N[C@@H]3COCC[C@H]3O)c12 [Compound 47]	0.1 to 1 µM	0.1 to 1 µM	0.1 to 1 µM	–	–	–	–
COc1cc(F)cc(CN(C)C(=O)c2n[nH]c3ncnc(N[C@@H]4CC[C@@H](O)[C@H]4O)c23)c1 [Compound 48]	0.01 to 0.1 µM	–	–	0.01 to 0.1 µM	0.1 to 1 µM	–	–
O=C(c1n[nH]c2ncnc(NC3CCOCC3O)c12)N1CC(F)CC1c1cc(F)ccc1OC(F)F (stereo not shown) [Compound 238]	–	0.01 to 0.1 µM	0.01 to 0.1 µM	–	–	–	–
C[C@@H](Oc1cc(-c2cnn(C3CCNCC3)c2)cnc1N)c1c(Cl)ccc(F)c1Cl [Crizotinib, crizotinib, reference compound]	–	–	–	–	–	0.087 µM	9 µM
